“Also recorded” adds a separate entry of the source. Read-outs that look alike come from different tables or passages of the source.
Tests used:
Mouse DRG explants [1] = assay: Toxic side effects on DRG explants without axotomy; type: cell-based; conditions: 10-30 μM compound; no axotomy
Experimental: (§1) FIG. 15A. Mouse DRG explants cultures were grown in NGF containing media for 96 hours. Right before axotomy, the media was exchanged and supplemented with either 10-30 μM of the hSARM1 inhibitory compounds or just with 0.2% DMSO for control, and then the culture were left to grow for additional 16 hours. The white dashed lines indicate cut site (axotomy). To evaluate toxic side effects, we applied […] of the inhibitory compounds without performing axotomy. The axons were stained with anti-Tuj1 antibody.
(§2) Dorsal root ganglion (DRG) were dissected from E13.5 wild-type mice and plated in 8-wells chamber coated with 10 μg/ml poly-d-lysin (Sigma-Aldrich, St Louis. Mo.) and 10 μg/ml mouse Laminin (Sigma-Aldrich). The DRGs were grown in Neurobasal™-A (NB, GIBCO, 10888022) medium supplemented with B27 (Gibco, Waltham, Mass.), penicillin-streptomycin solution, glutamine (Biological Industries, Beit HaEmek, Israel), and NGF (Alomone Labs. Jerusalem, Israel) in a humidified incubator (37° C. 5% CO2).
(§3) After 96 h, the medium was exchanged to NGF containing medium, supplemented with 10-30 μM SARM1 inhibitory compounds, which were first dissolved in DMSO to a 10 mM stock concentration. For axotomy, axons were cut using a needle, in close proximity to the cell body and were examined 16 hours post-axotomy. […]
(§4) Images were binarized such that pixels corresponding to axons converted to white, while all other regions converted to black. The images were analyzed using Image) software with algorithm that distinguishes fragmented from intact axonal segments. To each image we calculated the degeneration index (DI) defined as the ratio of fragmented to intact axon number. To quantify axonal protection, we normalized the DI values to DMSO with axotomy, and then we divide one by each calculated value. […] To quantify axonal degeneration caused by the compounds' toxicity, we normalized the DI values to DMSO control without axotomy and generated a degeneration index. From each explant, 4 nonoverlapping frames were randomly collected and quantified per experimental condition.

Mouse DRG explants [2] = assay: Axon degeneration assay after axotomy, DRG explants; type: cell-based; conditions: 10-30 μM compound; 16 hours post axotomy
Experimental: as §1, §2, §3, §4

zfSARM1 = target: T1, zfSARM1 (Danio rerio, UniProt F1QWA8); assay: Effect of hSARM1 inhibitors on zfSARM1 NADase activity (ADPR by HPLC); type: biochemical, Zebrafish
T1 sequence (F1QWA8 1-713): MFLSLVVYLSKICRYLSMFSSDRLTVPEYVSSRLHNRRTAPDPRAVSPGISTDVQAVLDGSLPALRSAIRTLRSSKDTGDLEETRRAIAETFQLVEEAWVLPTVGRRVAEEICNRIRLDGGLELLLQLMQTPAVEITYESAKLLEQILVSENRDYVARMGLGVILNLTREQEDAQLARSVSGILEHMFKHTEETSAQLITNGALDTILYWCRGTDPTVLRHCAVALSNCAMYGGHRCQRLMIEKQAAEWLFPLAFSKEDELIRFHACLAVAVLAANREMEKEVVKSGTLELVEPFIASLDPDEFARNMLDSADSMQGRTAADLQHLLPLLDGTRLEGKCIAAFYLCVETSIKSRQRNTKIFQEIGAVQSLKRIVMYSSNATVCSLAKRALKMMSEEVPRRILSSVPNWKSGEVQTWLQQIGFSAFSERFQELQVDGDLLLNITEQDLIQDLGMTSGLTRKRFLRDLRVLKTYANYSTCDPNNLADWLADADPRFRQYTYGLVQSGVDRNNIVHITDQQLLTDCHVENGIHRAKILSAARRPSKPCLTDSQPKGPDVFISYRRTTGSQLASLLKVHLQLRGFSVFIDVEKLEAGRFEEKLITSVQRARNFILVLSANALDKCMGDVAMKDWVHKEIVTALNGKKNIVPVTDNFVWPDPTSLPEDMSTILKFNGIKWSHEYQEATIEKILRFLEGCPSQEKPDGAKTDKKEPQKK

hSARM1 [3] = target: T2, hSARM1 (Homo sapiens, UniProt Q6SZW1); assay: Determination of IC50 and mode of inhibition of hSARM1 NADase (ADPR by HPLC); type: biochemical; conditions: for mode of inhibition, Lineweaver-Burk plot: 10 μM inhibitor, NAD+ 1-160 μM; for IC50: 50 μM NAD+, 10 min pre-incubation at room temperature, 10 min at 37° C.
T2 construct: hSARM1w.t; (26ERL . . . GPT724) that was not mutated in E642, was also expressed and isolated; 6xHis (N); TEV cleavage site (N); made in house; host or cells: HEK293F suspension cells
T2 sequence (Q6SZW1 with tags, fused parts or gaps): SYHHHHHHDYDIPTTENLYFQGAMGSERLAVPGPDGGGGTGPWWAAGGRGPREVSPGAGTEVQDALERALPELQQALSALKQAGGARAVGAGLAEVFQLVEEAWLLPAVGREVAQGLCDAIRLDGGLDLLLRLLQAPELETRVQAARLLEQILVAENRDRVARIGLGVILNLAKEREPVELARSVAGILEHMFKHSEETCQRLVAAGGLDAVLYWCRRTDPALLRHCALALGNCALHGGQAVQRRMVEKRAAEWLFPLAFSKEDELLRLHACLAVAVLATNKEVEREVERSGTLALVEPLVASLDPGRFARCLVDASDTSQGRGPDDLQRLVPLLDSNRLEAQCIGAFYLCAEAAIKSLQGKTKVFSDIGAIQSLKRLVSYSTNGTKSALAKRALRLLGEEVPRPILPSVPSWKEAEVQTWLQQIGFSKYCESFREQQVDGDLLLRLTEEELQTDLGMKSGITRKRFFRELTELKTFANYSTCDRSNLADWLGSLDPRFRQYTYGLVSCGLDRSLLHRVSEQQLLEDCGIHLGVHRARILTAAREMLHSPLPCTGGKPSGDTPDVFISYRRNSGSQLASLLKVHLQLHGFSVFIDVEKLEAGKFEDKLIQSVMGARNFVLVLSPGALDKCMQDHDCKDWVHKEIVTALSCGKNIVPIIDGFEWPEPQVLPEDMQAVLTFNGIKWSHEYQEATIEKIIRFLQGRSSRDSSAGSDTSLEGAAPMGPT

hSARM1 [4] = target: T2, hSARM1; assay: HPLC analysis of time dependent NAD+ consumption by hSARM1; type: biochemical; conditions: 50 μM NAD+
Experimental: Purified hSARM1w.t. was first diluted to 800 nM in 25 mM HEPES pH 7.5, 150 mM NaCl, and then mixed in 37° C. with different concentrations of NAD+(in the same buffer) in a 1:1 v/v ratio and incubated for 0, 5 and 30 min. 1:100 (v/v). BSA (NEB Inc. 20 mg/ml) was included, and reactions were stopped by heating at 95° C. for 2 minutes. Where specified, NMN (Sigma-Aldrich-N3501) was added in different concentrations. For control, NAD+ consumption was compared to a commercially available porcine brain NADase 0.025 units/ml (Sigma-Aldrich-N9879).
HPLC measurements were performed using a Merck Hitachi Elite LaChrom HPLC system equipped with an autosampler, UV detector and quaternary pump. HPLC traces were monitored at 260 nm and integrated using EZChrom Elite software. 10 μL of each sample were injected onto a Waters Spherisorb ODS1 C18 RP HPLC Column (5 μm particle size, 4.6 mm×150 mm ID). HPLC solvents are: A: 100% methanol; B: 120 mM sodium phosphate pH 6.0; C double-distilled water (DDW). The column was pre-equilibrated with B:C mixture ratio of 80:20. Chromatography was performed at room temperature with a flow rate of 1.5 ml/min. Each analysis cycle was 12 min long as follows (A:B:C, v/v): fixed 0:80:20 0-4 min; gradient to 20:80:0 4-6 min; fixed 20:80:0 from 6-9 min. gradient to 0:80:20 from 9-10 min; fixed 0:80:20 from 10-12 min. The NAD+ hydrolysis product ADPR was eluted at the isocratic stage of the chromatography while NAD+ elutes in the methanol gradient stage.

hSARM1 FP255-6RR (human) = hSARM1 FP255-6RR (human) (UniProt Q6SZW1); assay: cell-based or functional assay
[5] = target: hSARM1RR216-7EE/FP255-6RR (human) (UniProt Q6SZW1); assay: cell-based or functional assay

Question: With `CCOC(=O)Cn1sc2nc(C)cc(C)c2c1=O` [TK142] as the compound, how does the “toxic effect on axons without axotomy” value (Mouse DRG explants [1]) read?
Answer: not toxic at all

Question: What about the “protection of axons after axotomy” value (Mouse DRG explants [2]) of the same compound?
Answer: only mild protection

Question: What about the “effect on zfSARM1 NADase activity (words)” value (zfSARM1) of the same compound?
Answer: concentration-dependent inhibitory effects

Question: And the “effect on zfSARM1 NADase activity (words)” value (zfSARM1; listed as TK 142)?
Answer: specific inhibitory effect

Question: What about the “mode of inhibition, Lineweaver-Burk plot” value (hSARM1 [3]) of the same compound?
Answer: competitive pattern

Question: And the IC50 (hSARM1 [3])?
Answer: ≤ 10 µM

Question: `NC(=O)c1ccc[n+]([C@@H]2O[C@H](COP(=O)([O-])O)[C@@H](O)[C@H]2O)c1` [NMN, nicotinamide mononucleotide, reference compound] was tested. Which “effect on hSARM1 NADase activity” value (hSARM1 [4]; 0.2 mM NMN) did it give?
Answer: no visible effect

Question: And the “increase in hSARM1 NADase activity” value (hSARM1 [4]; 1 mM NMN)?
Answer: 30%

Question: How did the “toxic effect on axons without axotomy” value (Mouse DRG explants [1]) turn out when `O=C(c1ccccn1)N1C[C@H]2OC(=O)N(CCCN3CCOCC3)[C@H]2C1` [TK174] was run?
Answer: not toxic

Question: And the “protection of axons after axotomy” value (Mouse DRG explants [2])?
Answer: did not protect axons after axotomy

Question: What about the IC50 (hSARM1 [3]) of the same compound?
Answer: ≤ 10 µM

Question: For `O=NN1CCCCC1` [TK138], which “toxic effect on axons without axotomy” value (Mouse DRG explants [1]) is on record?
Answer: only very mildly toxic; also recorded: significant toxic effect

Question: And the “protection of axons after axotomy” value (Mouse DRG explants [2])?
Answer: high level of protection; also recorded: highest level of protection

Question: What about the EC50 (zfSARM1; 50 μM NAD+, ADPR production by HPLC, read-out: EC50, activation of zfSARM1 NADase) of the same compound?
Answer: 2.7 µM

Question: What about the “mode of inhibition, Lineweaver-Burk plot” value (hSARM1 [3]) of the same compound?
Answer: competitive pattern

Question: How did the cell death 24 hours after transfection (resazurin fluorescence assay, HEK-293T cells) (hSARM1 FP255-6RR (human)) turn out when “hSARM1 FP255-6RR (from UniProt Q6SZW1 26-724) (enzyme)” was run?
Answer: 50%

Question: Which cell death 24 hours after transfection (resazurin fluorescence assay, HEK-293T cells) [5] does the source give for “hSARM1RR216-7EE/FP255-6RR (from UniProt Q6SZW1 26-724) (enzyme)” here?
Answer: 50%
